IC50 data for seven compounds are collected here from ChEMBL document CHEMBL1138391, “Syntheses of hydroxy substituted 2-phenyl-naphthalenes as inhibitors of tyrosinase” (Bioorg Med Chem Lett, 2007).

Broadly, the IC50 is the concentration needed to halve the response being measured.

In the test the target is T1, Tyrosinase (Agaricus bisporus, UniProt O42713).
T1 sequence (O42713 whole entry): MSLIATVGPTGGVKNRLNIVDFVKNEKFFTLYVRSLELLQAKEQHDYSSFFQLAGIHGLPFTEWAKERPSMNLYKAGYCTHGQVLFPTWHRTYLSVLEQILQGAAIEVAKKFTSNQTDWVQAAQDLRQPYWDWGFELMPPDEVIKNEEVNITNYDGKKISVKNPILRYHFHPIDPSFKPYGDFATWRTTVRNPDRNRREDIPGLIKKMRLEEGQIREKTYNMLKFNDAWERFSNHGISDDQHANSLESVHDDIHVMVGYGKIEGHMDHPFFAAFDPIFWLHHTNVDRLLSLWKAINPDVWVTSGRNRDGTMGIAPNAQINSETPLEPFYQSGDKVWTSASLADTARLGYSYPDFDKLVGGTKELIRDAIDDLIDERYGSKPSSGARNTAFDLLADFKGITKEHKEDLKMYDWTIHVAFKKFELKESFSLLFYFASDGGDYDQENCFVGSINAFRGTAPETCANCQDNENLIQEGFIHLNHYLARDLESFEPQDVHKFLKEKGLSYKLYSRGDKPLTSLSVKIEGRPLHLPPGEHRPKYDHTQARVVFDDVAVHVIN
Description: Inhibition of mushroom tyrosinase
Take `Oc1ccc(-c2ccc3cc(O)ccc3c2)c(O)c1`: the IC50 came to 0.034 µM. For the compound `Oc1ccc(O)cc1` [HYDROQUINONE], half-maximal inhibition (IC50) required 33.5 µM. `Oc1ccc2cc(-c3cc(O)c(O)c(O)c3)ccc2c1`: the half-maximal inhibitory concentration (IC50) was determined as 2.95 µM. On to `Oc1cccc(-c2ccc3cc(O)ccc3c2)c1`, for which inhibition was half-maximal at 6.4 µM (IC50). This IC50 lies about 2.2-fold higher than the previous one. In turn, `Oc1cc(O)cc(-c2ccc3cc(O)cc(O)c3c2)c1` registered an IC50 of 0.49 µM. Then `Oc1ccc(/C=C/c2cc(O)cc(O)c2)cc1` [RESVERATROL], with 55.6 µM. Then `Oc1cc(O)cc(-c2ccc3cc(O)ccc3c2)c1`, with 16.5 µM.
